Results: ChEMBL document CHEMBL1141278, “Naamidines H and I, cytotoxic imidazole alkaloids from the Indonesian marine sponge Leucetta chagosensis” (J Nat Prod, 2007)
Values after ≈ are worked out from the molar mass of the structure shown. Active and inactive are the calls of the source. No cut-off for these calls is given here.

How the values were obtained:
HeLa = assay: Cytotoxicity against human HeLa cells by MTT assay; type: functional, cell-based
Escherichia coli = assay: Antimicrobial activity against Escherichia coli at 50 ug/6 mm disk by paper disk method; type: functional, organism-based

## COc1ccc(Cc2[nH]/c(=N\C3=NC(=O)N(C)C3=O)n(C)c2Cc2cc(OC)c(O)c(OC)c2)cc1 [NAAMIDINE H]
HeLa
  IC50: 5.6 µg/mL (≈ 11.3 µM)
Escherichia coli
  Activity: inactive

## C/N=C1N=C(/N=c2\[nH]c(Cc3ccc(OC)cc3)c(Cc3cc(OC)c(O)c(OC)c3)n2C)C(=O)N\1C [NAAMIDINE I]
HeLa
  IC50: 15 µg/mL (≈ 29.6 µM)
Escherichia coli
  Activity: inactive
